Measurements: patent publication US20230271956A1, “AMIDE DERIVATIVES” (Merck Patent GmbH, priority 2020, published 2023)

Tests used:
ACSS2 = target: T1, ACSS2 (Homo sapiens, UniProt Q9NR19); assay: Cellular assay of 14C acetate incorporation into fatty acids (IC50 ACSS2 cellular lipids); format: cell-based; settings: HCT-15 cells
T1 construct: endogenous fatty acid synthesis activity in the human HCT-15 cancer cell line; endogenous in cells; host or cells: HCT-15
Summary of the method: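 Human HCT-15 cells, 24 h on collagen, pre-incubated with compound 2 h at 37 °C in RPMI 1640/10 mM HEPES (≤0.1% DMSO), then 2 h with 14C-acetate plus AlamarBlue as viability check. Lysis at 70 °C, acidified fatty acids captured on scintillant plates; 14C incorporation counted as CPM.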

CHO-K1 cells = assay: Micronucleus assay (MNT) in vitro; format: cell-based; set-up: key: A: negative, putative negative (micronuclei detected beyond threshold of 60% cyctotoxicity); B: positive; settings: 24 hrs treatment, 0.2 µM to 100 µM
Method: The in vitro MNT assay is performed in CHO-K1 cells due to their stable and welI-characterized karyotype, high sensitivity and suitability for a high content imaging approach. They have a basal spontaneous micronucleus frequency of 3-4%.
24 hrs after plating CHO-K1 cells are treated with test compounds for 24 hrs (in duplicates; fixed concentration ranges from 0.2 µM to 100 µM in 2-fold dilution steps). After a medium change cells are incubated for 24 hrs with Cytochalasin B to block cytokinesis and are then fixed and nuclei / micronuclei visualized with a DNA stain. Images are acquired with the Molecular Devices high content imagers IXU or IXM and are analyzed with the dedicated MetaXpress software micronucleus module. Criteria for scoring of micronuclei (MN) are the following: • diameter of the MN should be less than ⅓ of the main nucleus • MN should be separated from or marginally overlap with main nucleus (= no blebs) • MN should have similar staining as the main nucleus At least 1000 binucleated cells are evaluated per treatment replicate. Mitomycin C is used as reference stimulator of micronucleus formation. Cytotoxicity is evaluated in parallel and defined by comparing total nuclei count in compound-treated samples to neutral control samples treated with vehicle only (1% DMSO) (100% cytotoxicity means all cells are dead or lost).
A test compound is regarded as POSITIVE if generation of micronuclei and exhibition of less than 60% cytotoxicity at the same concentration can be observed.
Compounds are scored only in the soluble concentration range. Experimental data of the compounds shown in Table 1 in the MNT assay are shown in Table 2 below and classified in the following groups: […]

human rec ACSS2 = target: T2, human rec ACSS2 (Homo sapiens, UniProt Q9NR19); assay: Biochemical activity ACSS2 assay (AMP-Glo); settings: human recombinant ACSS2, AMP-Glo, 180 min at 37° C.
T2 construct: myc (C); purchased Origene
Summary of the method: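 C-terminal myc-tagged human recombinant ACSS2 (1 nM) reacted with 100 µM ATP, 100 µM CoA and 500 µM acetate (final) in pH 7.5 Hepes buffer for 180 min at 37° C, compound in 10 concentrations from 30 µM. Released AMP detected by AMP-Glo luminescence. IC50 normalised to inhibitor-free reaction and 5 µM reference inhibitor.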

T1 sequence (Q9NR19 whole entry): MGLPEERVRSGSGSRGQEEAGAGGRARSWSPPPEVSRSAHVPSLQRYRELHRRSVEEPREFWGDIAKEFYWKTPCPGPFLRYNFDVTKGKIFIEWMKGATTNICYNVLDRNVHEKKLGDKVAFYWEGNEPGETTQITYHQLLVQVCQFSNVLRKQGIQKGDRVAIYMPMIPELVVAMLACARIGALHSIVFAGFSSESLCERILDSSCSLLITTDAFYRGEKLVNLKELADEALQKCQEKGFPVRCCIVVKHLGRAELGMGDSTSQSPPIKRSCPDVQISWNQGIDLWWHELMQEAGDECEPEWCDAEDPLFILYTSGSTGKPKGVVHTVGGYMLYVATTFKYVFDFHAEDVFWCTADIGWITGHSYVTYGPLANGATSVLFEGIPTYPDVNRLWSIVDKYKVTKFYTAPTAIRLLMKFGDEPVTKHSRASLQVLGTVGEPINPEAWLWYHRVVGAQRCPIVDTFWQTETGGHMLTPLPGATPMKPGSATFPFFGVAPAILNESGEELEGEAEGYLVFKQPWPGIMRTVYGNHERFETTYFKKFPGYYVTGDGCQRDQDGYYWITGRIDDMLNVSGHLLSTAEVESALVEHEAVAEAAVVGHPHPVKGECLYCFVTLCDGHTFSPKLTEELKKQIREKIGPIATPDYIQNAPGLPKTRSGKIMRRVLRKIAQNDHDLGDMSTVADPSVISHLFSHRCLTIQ
T2 sequence (Q9NR19 whole entry): as above

| SMILES | IC50 (ACSS2) [nM] | MNT (CHO-K1 cells) | IC50 (human rec ACSS2) [nM] |
| --- | --- | --- | --- |
| CCn1cnc(NC(=O)c2cc3c(nc2F)nc(C(O)(c2ccccc2)c2ccccc2)n3CC)n1 [Compound 89, 1-ethyl-N-(1-ethyl-1H-1,2,4-triazol-3-yl)-5-fluoro-2-(hydroxydiphenylmethyl)-1H-imidazo[4,5-b]pyridine-6-carboxamide] | 1 to 10 | A | 1 to 10 |
| CCc1c(C(O)(c2ccccc2F)c2ccccc2F)nn2cc(C)c(C(=O)Nc3ncn(CC)n3)cc12 [Compound 3, 2-[Bis-(2-fluoro-phenyl)-hydroxy-methyl]-3-ethyl-6-methyl-pyrazolo[1,5-a]pyridine-5-carboxylic acid (1-ethyl-1H-[1,2,4]triazol-3-yl)-amide] | 10 to 100 | A | 1 to 10 |
| CCn1cnc(NC(=O)c2cc3c(nc2OC)nc(C(O)(c2ccccc2F)c2ccccc2F)n3CC)n1 [Compound 102, 2-[bis(2-fluorophenyl)(hydroxy)methyl]-1-ethyl-N-(1-ethyl-1H-1,2,4-triazol-3-yl)-5-methoxy-1H-imidazo[4,5-b]pyridine-6-carboxamide] | 1 to 10 | A | 0.01 to 1 |
| CCc1c(C(O)(c2ccccc2)c2ccccc2)nc2cc(OC)c(C(=O)Nc3ncn(CC)n3)cn12 [Compound 24, 3-Ethyl-2-(hydroxy-diphenyl-methyl)-7-methoxy-imidazo[1,2-a]pyridine-6-carboxylic acid (1-ethyl-1H-[1,2,4]triazol-3-yl)-amide] | 1 to 10 | A | 1 to 10 |
| CCc1c(C(O)(c2ccccc2)c2ccccc2)nn2ccc(C(=O)Nc3ncn(CC)n3)cc12 [Compound 9, 3-Ethyl-2-(hydroxy-diphenyl-methyl)-pyrazolo[1,5-a]pyridine-5-carboxylic acid (1-ethyl-1H-[1,2,4]triazol-3-yl)-amide] | 0.01 to 1 | B | 1 to 10 |
| CCc1c(C(O)(c2ccccc2)c2ccccc2)nc2ccc(C(=O)Nc3cnn(CC)c3)cn12 [Compound 13, 3-Ethyl-2-(hydroxy-diphenyl-methyl)-imidazo[1,2-a]pyridine-6-carboxylic acid (1-ethyl-1H-pyrazol-4-yl)-amide] | 100 to 10000 | A | 10 to 100 |
| CCn1cc(NC(=O)c2cc3c(nc2Cl)nc(C(O)(c2ccccc2)c2ccccc2)n3CC)cn1 [Compound 98, 5-chloro-1-ethyl-N-(1-ethyl-1H-pyrazol-4-yl)-2-(hydroxydiphenylmethyl)-1H-imidazo[4,5-b]pyridine-6-carboxamide] | 10 to 100 | A | 1 to 10 |
| CCc1c(C(O)(c2ccccc2)c2ccccc2)nc2cc(Cl)c(C(=O)Nc3ncn(CC)n3)cn12 [Compound 14, 7-Chloro-3-ethyl-2-(hydroxy-diphenylmethyl)-imidazo[1,2-a]pyridine-6-carboxylic acid (1-ethyl-1H-[1,2,4]triazol-3-yl)-amide] | 1 to 10 | A | 1 to 10 |
| CCc1c(C(O)(c2ccccc2)c2ccccc2)nn2cc(Cl)c(C(=O)Nc3ncn(CC)n3)cc12 [Compound 1, 6-Chloro-3-ethyl-2-(hydroxy-diphenylmethyl)-pyrazolo[1,5-a]pyridine-5-carboxylic acid (1-ethyl-1H-[1,2,4]triazol-3-yl)-amide] | 0.01 to 1 | A | 0.01 to 1 |
| CCc1c(C(O)(c2ccccc2F)c2ccccc2F)nc2cc(OC)c(C(=O)Nc3cnn(CC)c3)cn12 [Compound 30, 2-[Bis-(2-fluoro-phenyl)-hydroxy-methyl]-3-ethyl-7-methoxy-imidazo[1,2-a]pyridine-6-carboxylic acid (1-ethyl-1H-pyrazol-4-yl)-amide] | 0.01 to 1 | A | 1 to 10 |
| CCn1c(C(O)(c2ccccc2)c2ccccc2)nc2ccc(C(=O)NC[C@@H](C)O)cc21 [Reference Compound, 3-Ethyl-2-[hydroxy(diphenyl)methyl]-N-[(2R)-2-hydroxypropyl]benzimidazole-5-carboxamide, reference compound] | 1 to 10 | B | 100 to 10000 |
| CCn1cc(NC(=O)c2cc3c(nc2F)nc(C(O)(c2ccccc2F)c2ccccc2F)n3CC)cn1 [Compound 90, 2-[bis(2-fluorophenyl)(hydroxy)methyl]-1-ethyl-N-(1-ethyl-1H-pyrazol-4-yl)-5-fluoro-1H-imidazo[4,5-b]pyridine-6-carboxamide] | 1 to 10 | A | 1 to 10 |
| CCn1cnc(NC(=O)c2cc3c(nc2OC)nc(C(O)(c2ccccc2)c2ccccn2)n3CC)n1 (single isomer, unassigned) [Compound 53, 1-ethyl-N-(1-ethyl-1H-1,2,4-triazol-3-yl)-2-[hydroxy(phenyl)(pyridin-2-yl)methyl]-5-methoxy-1H-imidazo[4,5-b]pyridine-6-carboxamide] | 0.01 to 1 | in-conclusive | 1 to 10 |
